{"source": "patent US20080108655A1", "about": "“Drug composition and method for treating malaria and malignancy” (priority 2005, published 2008)", "key": {"[1]": {"conditions": "human, in vivo; cited from earlier work"}, "[2]": {"conditions": "human, in vivo; cited from earlier work", "remark": "listed apart in the source"}, "[3]": {"test_system": "drug-resistant P. falciparum", "test": "in vitro chemosensitization/resistance-reversal (C/RR) potency, strain not stated", "format": "cell-based", "description": "(§1) All in vitro studies were 72 hour growth inhibition assays, starting with 0.2% parasitemia, 2% hematocrit under standard culture conditions in 96 well microplates. Growth was quantified using the fluorescence-based assay developed in our lab (Smilkstein et al; Antimicrobial Agents and Chemotherapy 2004;48:1803-1806). EC50 determined by non-linear regression curve fitting (sigmoidal dose-response, variable slope equation) using GraphPad Prism software. Isobolograms and EC50,75 and 90 estimates computed using CalcuSyn software (Biosoft, T. C. Chou)."}, "[4]": {"test_system": "drug-resistant P. falciparum", "conditions": "imipramine vs desipramine; amitriptyline vs nortriptyline; cited from earlier work"}, "[5]": {"test_system": "P. falciparum D6 (CQ sensitive, mefloquine resistant)", "test": "72 hour growth inhibition assay, fluorescence-based, strain D6", "format": "cell-based", "description": "as §1\n(§2) 2. […] In the following figures, fixed-ratio combinations of 2 drugs are made at the concentrations of each described in the figure legend (Fivelman, Adagu and Warhurst. Antimicrobial Agents and Chemotherapy 2004;48:4097-4102). Then, in quadruplicate, each of these combinations is diluted serially 2-fold, yielding one curve for each starting mixture. The data are expressed using the concentration of the antimalarial of interest on the X axis. […] In each starting combination, an increase of one drug is accompanied by a corresponding decrease in the other. As a result, overlapping curves indicate an additive relationship; a shift to the left, synergy; and a shift to the right, antagonism. • b. […]"}, "[6]": {"test_system": "P. falciparum Dd2 (multidrug resistant)", "description": "as §1\n2. […] In the following figures, fixed-ratio combinations of 2 drugs are made at the concentrations of each described in the figure legend (Fivelman, Adagu and Warhurst. Antimicrobial Agents and Chemotherapy 2004;48:4097-4102). Then, in quadruplicate, each of these combinations is diluted serially 2-fold, yielding one curve for each starting mixture. The data are expressed using the concentration of the antimalarial of interest on the X axis. […] In each starting combination, an increase of one drug is accompanied by a corresponding decrease in the other. As a result, overlapping curves indicate an additive relationship; a shift to the left, synergy; and a shift to the right, antagonism. • b. One representative isobologram from each of the experiments is included to the right of the figure, showing lines predictive of EC50,75 and 90 if the combinations were additive in effect. Points falling to the lower left of the predictive lines indicate synergy; those on or near the line, additive effects."}, "CQ-resistant P. chabaudi": {"test_system": "CQ-resistant P. chabaudi", "conditions": "mice, drug alone"}, "[7]": {"test_system": "P. falciparum W2 (chloroquine-resistant)", "test": "72 hour growth inhibition assay, fluorescence-based, strain W2", "format": "cell-based", "conditions": "fixed-ratio combinations, isobologram", "description": "as §1, §2"}}}
{"compound": "CN(C)CCC(c1ccccc1)c1ccccn1", "note": "(stereo not drawn) [pheniramine]", "values": [{"measurement": "sedation as side effect", "setting": "[1]", "result": "shares sedation as a side effect"}, {"measurement": "concentrations achieved in clinical use relative to BP or CP", "setting": "[2]", "result": "roughly 20 fold"}]}
{"compound": "CN(C)CCC(c1ccc(Br)cc1)c1ccccn1", "note": "(stereo not drawn) [BP, brompheniramine]", "values": [{"measurement": "C/RR potency of the (+/−) and (+) forms compared", "setting": "[3]; in vitro", "result": "equipotent"}]}
{"compound": "CN(C)CCC(c1ccc(Cl)cc1)c1ccccn1", "note": "(racemic) [chlorpheniramine]", "values": [{"measurement": "sedation as side effect", "setting": "[1]", "result": "consistently causes drowsiness"}, {"measurement": "C/RR potency of the (+/−) and (+) forms compared", "setting": "[3]; in vitro", "result": "equipotent"}, {"measurement": "typical serum concentrations in clinical use", "setting": "[2]", "result": "< 100", "unit": "nM"}]}
{"compound": "CN(C)CCC=C1c2ccccc2CCc2ccccc21", "note": "[amitriptyline]", "values": [{"measurement": "resistance-reversal potency, dimethylamine vs monomethylamine pair", "setting": "[4]", "result": "no substantial difference"}]}
{"compound": "CNCCCN1c2ccccc2CCc2ccccc21", "note": "[desipramine]", "values": [{"measurement": "typical serum concentrations in clinical use", "setting": "[2]", "result": "100 to 500", "unit": "nM"}, {"measurement": "resistance-reversal potency, dimethylamine vs monomethylamine pair", "setting": "[4]", "result": "no substantial difference"}]}
{"compound": "CN(C)CCC(c1ccc(Cl)cc1)c1ccccn1", "note": "(single isomer, unassigned; (-)) [(−)CP]", "values": [{"measurement": "C/RR activity", "setting": "[3]; in vitro", "result": "active"}]}
{"compound": "CN(C)CCCN1c2ccccc2CCc2ccccc21", "note": "[imipramine]", "values": [{"measurement": "resistance-reversal potency, dimethylamine vs monomethylamine pair", "setting": "[4]", "result": "no substantial difference"}]}
{"compound": "CNCCC=C1c2ccccc2CCc2ccccc21", "note": "[nortriptyline]", "values": [{"measurement": "resistance-reversal potency, dimethylamine vs monomethylamine pair", "setting": "[4]", "result": "no substantial difference"}]}
{"compound": "Cc1ccccc1C(OCCN(C)C)c1ccccc1", "note": "(racemic) [orphenadrine]", "values": [{"measurement": "sedation as side effect", "setting": "[1]", "result": "does not typically cause sedation"}, {"measurement": "interaction with mefloquine", "setting": "[5]; D6, resistant to mefloquine", "result": "synergistic"}, {"measurement": "interaction with CQ", "setting": "[5]; D6, fixed-ratio combinations, isobologram", "result": "not against CQ sensitive D6"}, {"measurement": "effect on sensitivity to quinine or mefloquine", "setting": "[3]; strains resistant to those drugs", "result": "increases sensitivity to quinine or mefloquine"}, {"measurement": "interaction with mefloquine", "setting": "[6]; Dd2, resistant to mefloquine", "result": "synergistic"}, {"measurement": "interaction with quinine", "setting": "[6]; Dd2, resistant to quinine", "result": "synergistic"}, {"measurement": "interaction with CQ", "setting": "[6]; Dd2, fixed-ratio combinations, isobologram", "result": "synergistic"}, {"measurement": "parasitemia at completion of 4 treatment days", "setting": "CQ-resistant P. chabaudi", "result": "decreased parasitemia"}, {"measurement": "interaction with CQ", "setting": "[7]", "result": "synergistic"}]}
